Read-outs that look alike come from different tables or passages of the source.
Assays:
Human CDK7/CycH/MAT1 = Human CDK7/CycH/MAT1 (Homo sapiens (Human), UniProt P50613); assay: Radiometric protein kinase assay (33PanQinase Activity Assay), CDK7; type: biochemical; conditions: Table 1; ATP 3 μM
Experimental: (§1) A radiometric protein kinase assay (^33PanQinase® Activity Assay) was used for measuring the kinase activity of the two protein kinases (CDK12/CDK7). All kinase assays were performed in 96-well FlashPlates™ from PerkinElmer (Boston, MA, USA) in a 50 μL reaction volume.
(§2) The reaction cocktail was pipetted in four steps in the following order: • 20 μL of assay buffer (standard buffer) • 5 μL of ATP solution (in H2O) • 5 μL of test compound (in 10% DMSO) • 10 μL of substrate/10 μL of enzyme solution (premixed)
(§3) The reaction mixture was incubated at 30° C. for 60 min and then stopped by the addition of 2% (v/v) H3PO4. Plates were aspirated and washed two times with 200 μL 0.9% (w/v) NaCl. Incorporation of ^33Pi was determined with a microplate scintillation count (Microbeta, Wallac).
(§4) The fitting method used was a least-squares fit.

Human CDK12 wt/CycK = Human CDK12 wt/CycK (Homo sapiens (Human), UniProt Q9NYV4); assay: Radiometric protein kinase assay (33PanQinase Activity Assay), CDK12; type: biochemical; conditions: for CDK7/CDK12: ratio greater than 1 indicated selectivity for CDK12
Human CDK12 wt/CycK, sequence (Q9NYV4 whole entry): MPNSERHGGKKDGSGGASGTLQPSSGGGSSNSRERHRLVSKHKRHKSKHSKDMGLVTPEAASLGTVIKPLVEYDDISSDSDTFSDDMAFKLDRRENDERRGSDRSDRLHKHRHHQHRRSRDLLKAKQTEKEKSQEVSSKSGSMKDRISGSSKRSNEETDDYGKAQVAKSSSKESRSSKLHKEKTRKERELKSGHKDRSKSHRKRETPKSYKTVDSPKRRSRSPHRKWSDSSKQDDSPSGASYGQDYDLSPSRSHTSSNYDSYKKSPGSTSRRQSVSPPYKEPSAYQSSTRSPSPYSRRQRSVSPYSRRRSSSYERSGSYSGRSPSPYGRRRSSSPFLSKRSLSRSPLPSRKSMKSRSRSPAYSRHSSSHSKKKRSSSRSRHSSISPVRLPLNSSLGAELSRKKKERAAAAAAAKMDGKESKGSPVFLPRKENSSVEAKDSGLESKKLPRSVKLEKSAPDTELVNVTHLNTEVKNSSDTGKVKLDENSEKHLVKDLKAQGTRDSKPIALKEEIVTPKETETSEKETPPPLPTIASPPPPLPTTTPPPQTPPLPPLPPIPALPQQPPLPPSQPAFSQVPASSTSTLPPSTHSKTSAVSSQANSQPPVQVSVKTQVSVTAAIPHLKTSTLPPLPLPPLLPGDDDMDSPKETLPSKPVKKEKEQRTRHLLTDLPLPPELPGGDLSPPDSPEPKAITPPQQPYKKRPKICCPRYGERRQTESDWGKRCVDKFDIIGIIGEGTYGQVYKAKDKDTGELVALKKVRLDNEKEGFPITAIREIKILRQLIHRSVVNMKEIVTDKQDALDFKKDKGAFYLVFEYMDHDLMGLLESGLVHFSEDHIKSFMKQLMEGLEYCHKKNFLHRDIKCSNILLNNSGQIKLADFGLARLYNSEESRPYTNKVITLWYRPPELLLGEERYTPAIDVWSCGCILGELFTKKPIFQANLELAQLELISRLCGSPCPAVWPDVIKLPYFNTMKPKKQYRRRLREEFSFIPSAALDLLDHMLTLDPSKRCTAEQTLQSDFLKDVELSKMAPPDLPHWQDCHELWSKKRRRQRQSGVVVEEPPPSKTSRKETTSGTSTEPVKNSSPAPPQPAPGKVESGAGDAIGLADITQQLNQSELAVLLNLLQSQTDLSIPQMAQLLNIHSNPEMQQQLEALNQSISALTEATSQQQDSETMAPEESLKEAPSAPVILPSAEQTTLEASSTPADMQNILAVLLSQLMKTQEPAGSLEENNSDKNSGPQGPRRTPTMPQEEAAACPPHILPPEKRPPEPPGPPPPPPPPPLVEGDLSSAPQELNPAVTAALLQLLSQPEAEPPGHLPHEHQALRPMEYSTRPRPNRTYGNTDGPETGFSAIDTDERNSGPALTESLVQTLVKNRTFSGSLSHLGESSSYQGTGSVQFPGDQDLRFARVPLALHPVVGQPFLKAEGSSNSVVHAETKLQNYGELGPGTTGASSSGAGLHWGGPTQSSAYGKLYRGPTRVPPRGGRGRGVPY
Human CDK12 wt/CycK, sequence (O75909 whole entry partner): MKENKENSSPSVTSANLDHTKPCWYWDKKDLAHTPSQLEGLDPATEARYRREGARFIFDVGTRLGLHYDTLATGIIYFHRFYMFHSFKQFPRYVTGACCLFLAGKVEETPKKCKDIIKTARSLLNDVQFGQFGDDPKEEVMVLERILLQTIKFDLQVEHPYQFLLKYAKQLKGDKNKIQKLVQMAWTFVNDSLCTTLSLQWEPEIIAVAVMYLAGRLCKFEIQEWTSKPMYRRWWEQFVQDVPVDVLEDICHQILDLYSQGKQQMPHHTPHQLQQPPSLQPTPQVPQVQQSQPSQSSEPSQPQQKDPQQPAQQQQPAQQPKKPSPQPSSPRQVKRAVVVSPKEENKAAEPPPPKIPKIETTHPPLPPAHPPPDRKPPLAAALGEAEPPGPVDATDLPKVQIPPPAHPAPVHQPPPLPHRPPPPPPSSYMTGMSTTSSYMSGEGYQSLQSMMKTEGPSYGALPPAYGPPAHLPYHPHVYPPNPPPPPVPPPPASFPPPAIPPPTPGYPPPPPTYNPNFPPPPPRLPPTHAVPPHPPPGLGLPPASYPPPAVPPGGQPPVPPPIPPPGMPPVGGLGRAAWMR
Experimental: as §1, §2, §3, §4

A673 cells = assay: Cellular potency in A673 cells; type: cell-based; conditions: for IC50: Homo sapiens, A673, Table 3, A673 cells; for Ratio of Biochemical Potency: Cellular Potency: Table 3, ratio >0.9 is an indicator of Cyclin K degradation
[1] = Table 1, ATP 0.3 μM, read-out: CDK12 IC50
[2] = Table 3, CDK12 kinase activity, read-out: Biochemical Potency IC50

Human CDK7/CycH/MAT1, sequence (P50613 whole entry): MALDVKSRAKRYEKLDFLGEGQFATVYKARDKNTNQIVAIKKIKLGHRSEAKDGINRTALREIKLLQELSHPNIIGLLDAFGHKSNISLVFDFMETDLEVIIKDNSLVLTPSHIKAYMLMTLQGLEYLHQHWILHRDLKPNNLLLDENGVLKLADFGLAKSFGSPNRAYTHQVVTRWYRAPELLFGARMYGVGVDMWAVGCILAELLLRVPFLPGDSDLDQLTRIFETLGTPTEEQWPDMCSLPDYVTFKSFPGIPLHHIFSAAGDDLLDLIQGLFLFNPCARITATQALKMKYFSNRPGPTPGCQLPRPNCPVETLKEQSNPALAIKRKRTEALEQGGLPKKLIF
Human CDK7/CycH/MAT1, sequence (P51946 whole entry partner): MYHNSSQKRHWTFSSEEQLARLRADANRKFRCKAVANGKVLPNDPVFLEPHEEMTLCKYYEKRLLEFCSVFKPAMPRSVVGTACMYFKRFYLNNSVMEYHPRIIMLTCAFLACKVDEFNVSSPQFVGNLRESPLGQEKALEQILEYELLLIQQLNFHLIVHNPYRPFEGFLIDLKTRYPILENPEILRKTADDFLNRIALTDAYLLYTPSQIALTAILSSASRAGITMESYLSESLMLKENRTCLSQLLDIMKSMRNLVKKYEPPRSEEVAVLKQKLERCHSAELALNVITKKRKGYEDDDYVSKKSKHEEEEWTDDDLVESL
Human CDK7/CycH/MAT1, sequence (P51948 whole entry partner): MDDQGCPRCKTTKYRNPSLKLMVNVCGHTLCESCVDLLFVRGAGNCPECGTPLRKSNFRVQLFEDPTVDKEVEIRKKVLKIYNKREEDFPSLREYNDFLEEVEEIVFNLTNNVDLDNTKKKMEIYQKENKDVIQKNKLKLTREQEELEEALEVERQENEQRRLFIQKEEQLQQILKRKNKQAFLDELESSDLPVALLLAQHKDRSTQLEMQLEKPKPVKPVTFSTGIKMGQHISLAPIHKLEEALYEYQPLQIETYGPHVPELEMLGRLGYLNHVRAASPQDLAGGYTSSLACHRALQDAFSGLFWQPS

O[C@H]1CNCC[C@@H]1CNc1cc(NCc2cn3cc(C4CC4)cc(C(F)(F)F)c3n2)n2ncc(C3CC3)c2n1 [H-APPAMP-042, (3R,4R)-4-(((3-cyclopropyl-7-(((6-cyclopropyl-8-(trifluoromethyl)imidazo[1,2-a]pyridin-2-yl)methyl)amino)pyrazolo[1,5-a]pyrimidin-5-yl)amino)methyl)piperidin-3-ol] showed an IC50 (Human CDK7/CycH/MAT1) of 974 nM, an IC50 (Human CDK12 wt/CycK; [1]) of 100 nM and a CDK7/CDK12 (Human CDK12 wt/CycK; Table 1) of 9.7. For the same compound, the IC50 (Human CDK12 wt/CycK; [2]) was 100 nM, the IC50 (A673 cells) was 30 nM and the “Ratio of Biochemical Potency: Cellular Potency” value (from here on “Ratio of Biochemical Potency”) (A673 cells) was 3.3.

With CC(C)c1cnn2c(NCc3nc4ccccn4c3C(F)(F)F)cc(NC[C@H]3CCNC[C@@H]3O)nc12 [H-APPAMP-023, (3R,4R)-4-(((3-isopropyl-7-(((3-(trifluoromethyl)imidazo[1,2-a]pyridin-2-yl)methyl)amino)pyrazolo[1,5-a]pyrimidin-5-yl)amino)methyl)piperidin-3-ol] the IC50 (Human CDK7/CycH/MAT1) was 102 nM, the IC50 (Human CDK12 wt/CycK; [1]) was 702 nM and the CDK7/CDK12 (Human CDK12 wt/CycK; Table 1) was 0.1. The IC50 (Human CDK12 wt/CycK; [2]) was 702 nM, the IC50 (A673 cells) was 296 nM and the “Ratio of Biochemical Potency” value (A673 cells) was 2.4.

O[C@H]1CNCC[C@@H]1CNc1cc(NCc2cn3cc(C(F)(F)F)cc(Cl)c3n2)n2ncc(C3CC3)c2n1 [H-APPAMP-033, (3R,4R)-4-(((7-(((8-chloro-6-(trifluoromethyl)imidazo[1,2-a]pyridin-2-yl)methyl)amino)-3-cyclopropylpyrazolo[1,5-a]pyrimidin-5-yl)amino)methyl)piperidin-3-ol] gave an IC50 (Human CDK7/CycH/MAT1) of 1060 nM, an IC50 (Human CDK12 wt/CycK; [1]) of 62 nM and a CDK7/CDK12 (Human CDK12 wt/CycK; Table 1) of 17.1. The IC50 (Human CDK12 wt/CycK; [2]) was 62 nM, the IC50 (A673 cells) was 5.7 nM and the “Ratio of Biochemical Potency” value (A673 cells) was 11.

For CC(C)c1cnn2c(NCc3ccccc3)cc(NC[C@H]3CCNC[C@@H]3O)nc12 [REF-001, reference compound], the IC50 (Human CDK12 wt/CycK; [1]) was 3200 nM.

CCc1cnn2c(NCc3cn4cccc(C)c4n3)cc(NC[C@H]3CCNC[C@@H]3O)nc12 [H-APPAMP-026, (3R,4R)-4-(((3-ethyl-7-(((8-methylimidazo[1,2-a]pyridin-2-yl)methyl)amino)pyrazolo[1,5-a]pyrimidin-5-yl)amino)methyl)piperidin-3-ol] gave an IC50 (Human CDK7/CycH/MAT1) of 69 nM, an IC50 (Human CDK12 wt/CycK; [1]) of 31 nM and a CDK7/CDK12 (Human CDK12 wt/CycK; Table 1) of 2.2. The IC50 (Human CDK12 wt/CycK; [2]) was 31 nM, the IC50 (A673 cells) was 2.5 nM and the “Ratio of Biochemical Potency” value (A673 cells) was 12.

Compound CCc1cnn2c(NCc3cn4c(C(F)(F)F)cccc4n3)cc(NC[C@H]3CCNC[C@@H]3O)nc12 [H-APPAMP-034, (3R,4R)-4-(((3-ethyl-7-(((5-(trifluoromethyl)imidazo[1,2-a]pyridin-2-yl)methyl)amino)pyrazolo[1,5-a]pyrimidin-5-yl)amino)methyl)piperidin-3-ol] has an IC50 (Human CDK7/CycH/MAT1) of 152 nM, an IC50 (Human CDK12 wt/CycK; [1]) of 173 nM and a CDK7/CDK12 (Human CDK12 wt/CycK; Table 1) of 0.9. The IC50 (Human CDK12 wt/CycK; [2]) was 173 nM, the IC50 (A673 cells) was 12.1 nM and the “Ratio of Biochemical Potency” value (A673 cells) was 14.

Cc1ccn2cc(CNc3cc(NC[C@H]4CCNC[C@@H]4O)nc4c(C(C)C)cnn34)nc2c1 [H-APPAMP-009, (3R,4R)-4-(((3-isopropyl-7-(((7-methylimidazo[1,2-a]pyridin-2-yl)methyl)amino)pyrazolo[1,5-a]pyrimidin-5-yl)amino)methyl)piperidin-3-ol] gave an IC50 (Human CDK7/CycH/MAT1) of 123 nM, an IC50 (Human CDK12 wt/CycK; [1]) of 38 nM and a CDK7/CDK12 (Human CDK12 wt/CycK; Table 1) of 3.2. The IC50 (Human CDK12 wt/CycK; [2]) was 38 nM, the IC50 (A673 cells) was 14.9 nM and the “Ratio of Biochemical Potency” value (A673 cells) was 2.6.

Work on CC(C)c1cnn2c(NCc3cn4cccc(C5CC5)c4n3)cc(NC[C@H]3CCNC[C@@H]3O)nc12 [H-APPAMP-013, (3R,4R)-4-(((7-(((8-cyclopropylimidazo[1,2-a]pyridin-2-yl)methyl)amino)-3-isopropylpyrazolo[1,5-a]pyrimidin-5-yl)amino)methyl)piperidin-3-ol] yielded an IC50 (Human CDK7/CycH/MAT1) of 226 nM, an IC50 (Human CDK12 wt/CycK; [1]) of 70 nM and a CDK7/CDK12 (Human CDK12 wt/CycK; Table 1) of 3.2. For the same compound, the IC50 (Human CDK12 wt/CycK; [2]) was 70 nM, the IC50 (A673 cells) was 12.2 nM and the “Ratio of Biochemical Potency” value (A673 cells) was 5.7.

For CC(C)c1cnn2c(NCc3ccncc3)cc(NC[C@H]3CCNC[C@@H]3O)nc12 [REF-002, reference compound], the IC50 (Human CDK7/CycH/MAT1) was 125 nM and the IC50 (Human CDK12 wt/CycK; [1]) was 253 nM.

For CC(C)c1cnn2c(Nc3csc4ccccc34)cc(NC[C@H]3CCNC[C@@H]3O)nc12 [REF-003, reference compound], the IC50 (Human CDK7/CycH/MAT1) was 11 nM and the IC50 (Human CDK12 wt/CycK; [1]) was 597 nM.

— US12473303B2, “4-[[(7-aminopyrazolo[1,5-a]pyrimidin-5-yl)amino methyl]piperidin-3-ol compounds and their therapeutic use” (CARRICK THERAPEUTICS LIMITED, priority 2019, dated 2025)
